ChEMBL document CHEMBL5715949, “Discovery of a selective irreversible BMX inhibitor for prostate cancer” (ACS Chem Biol, 2013)
The source made the active and inactive calls. The calls are words filed in the database; no cut-off is given here.

Legend:
[1] = molecular target: cAMP-dependent protein kinase catalytic subunit beta (Homo sapiens) (UniProt P22694); assay: Inhibition of PKAC-beta (unknown origin) assessed as remaining activity at 1 uM by Kinome scan method relative to control
[2] = molecular target: Protein kinase C delta type (Homo sapiens) (UniProt Q05655); assay: Inhibition of PRKCD (unknown origin) assessed as remaining activity at 1 uM by Kinome scan method relative to control
[3] = molecular target: Ribosomal protein S6 kinase alpha-4 (Homo sapiens) (UniProt O75676); assay: Inhibition of N-terminal kinase domain RPS6KA4 (unknown origin) assessed as remaining activity at 1 uM by Kinome scan method relative to control
RV-1 [4] = assay: Induction of apoptosis in human RV-1 cells assessed as increase in cleaved caspase-3 protein expression at 5 uM incubated for 3 days by immunostaining analysis; type: functional, cell-based; conditions: time 3.0 day
[5] = molecular target: Proto-oncogene tyrosine-protein kinase Src (Homo sapiens) (UniProt P12931); assay: Inhibition of SRC (unknown origin) assessed as remaining activity at 1 uM by Kinome scan method relative to control
Sequence of Proto-oncogene tyrosine-protein kinase Src (Homo sapiens) (P12931 2-536 limits assumed): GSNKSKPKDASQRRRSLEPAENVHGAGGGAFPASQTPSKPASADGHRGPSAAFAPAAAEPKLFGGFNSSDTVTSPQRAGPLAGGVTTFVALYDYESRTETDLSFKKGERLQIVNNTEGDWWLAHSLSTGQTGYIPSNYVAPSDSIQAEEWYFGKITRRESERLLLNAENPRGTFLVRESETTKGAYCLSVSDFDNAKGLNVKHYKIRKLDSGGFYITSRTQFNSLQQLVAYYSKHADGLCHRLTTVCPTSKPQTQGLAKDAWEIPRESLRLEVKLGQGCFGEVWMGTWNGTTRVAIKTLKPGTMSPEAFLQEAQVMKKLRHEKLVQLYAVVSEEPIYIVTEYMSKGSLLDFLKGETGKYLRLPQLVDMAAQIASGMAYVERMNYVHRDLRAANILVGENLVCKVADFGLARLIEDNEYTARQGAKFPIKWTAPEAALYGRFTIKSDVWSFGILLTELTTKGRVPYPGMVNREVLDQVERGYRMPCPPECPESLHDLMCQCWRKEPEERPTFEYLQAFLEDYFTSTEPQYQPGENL

[6] = molecular target: Interleukin-1 receptor-associated kinase 1 (Homo sapiens) (UniProt P51617); assay: Inhibition of IRAK1 (unknown origin) assessed as remaining activity at 1 uM by Kinome scan method relative to control
Sequence of Interleukin-1 receptor-associated kinase 1 (Homo sapiens) (P51617 whole entry, looked up): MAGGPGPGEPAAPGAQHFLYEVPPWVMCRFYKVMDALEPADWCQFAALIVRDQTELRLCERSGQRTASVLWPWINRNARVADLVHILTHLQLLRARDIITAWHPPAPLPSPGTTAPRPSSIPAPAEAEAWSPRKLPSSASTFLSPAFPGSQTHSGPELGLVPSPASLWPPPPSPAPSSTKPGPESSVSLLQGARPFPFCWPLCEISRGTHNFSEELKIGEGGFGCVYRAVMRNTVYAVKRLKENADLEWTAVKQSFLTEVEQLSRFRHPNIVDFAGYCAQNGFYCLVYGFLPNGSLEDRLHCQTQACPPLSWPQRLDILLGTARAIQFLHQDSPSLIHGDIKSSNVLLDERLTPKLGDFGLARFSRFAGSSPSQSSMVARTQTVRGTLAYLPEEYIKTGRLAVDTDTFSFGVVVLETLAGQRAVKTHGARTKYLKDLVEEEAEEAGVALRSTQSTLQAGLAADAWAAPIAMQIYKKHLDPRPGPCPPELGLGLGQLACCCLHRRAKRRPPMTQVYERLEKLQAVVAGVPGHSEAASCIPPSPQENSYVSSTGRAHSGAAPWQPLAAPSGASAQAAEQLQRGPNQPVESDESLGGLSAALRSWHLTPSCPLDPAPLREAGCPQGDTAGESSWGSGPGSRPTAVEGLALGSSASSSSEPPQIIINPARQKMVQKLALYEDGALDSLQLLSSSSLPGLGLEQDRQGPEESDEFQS

[7] = molecular target: Interleukin-1 receptor-associated kinase 4 (Homo sapiens) (UniProt Q9NWZ3); assay: Inhibition of IRAK4 (unknown origin) assessed as remaining activity at 1 uM by Kinome scan method relative to control
[8] = molecular target: Mitogen-activated protein kinase 14 (Homo sapiens) (UniProt Q16539); assay: Inhibition of P38alpha (unknown origin) assessed as remaining activity at 1 uM by Kinome scan method relative to control
[9] = molecular target: Vascular endothelial growth factor receptor 3 (Homo sapiens) (UniProt P35916); assay: Inhibition of FLT4 (unknown origin) assessed as remaining activity at 1 uM by Kinome scan method relative to control
[10] = tested on: Tyrosine-protein kinase ABL1 (Homo sapiens), P00519 [H396P]; assay: Inhibition of ABL1 H396P mutant (unknown origin) assessed as remaining activity at 1 uM by Kinome scan method relative to control
[11] = molecular target: Serine/threonine-protein kinase MARK1 (Homo sapiens) (UniProt Q9P0L2); assay: Inhibition of MARK1 (unknown origin) assessed as remaining activity at 1 uM by Kinome scan method relative to control
[12] = molecular target: Tyrosine-protein kinase Fes/Fps (Homo sapiens) (UniProt P07332); assay: Inhibition of FES (unknown origin) assessed as remaining activity at 1 uM by Kinome scan method relative to control
[13] = molecular target: cAMP-dependent protein kinase catalytic subunit alpha (Homo sapiens) (UniProt P17612); assay: Inhibition of PKAC-alpha (unknown origin) assessed as remaining activity at 1 uM by Kinome scan method relative to control
[14] = Down regulation of BMX protein expression in human RV-1 cells expressing BMX C496S mutant assessed protein expression level at 2.5 uM pre incubated for 4 hrs followed by compound wash out and additon of CHX and measured after 24 hrs by immunoblot analysis (reference value: 1.01 to 1.13); type: functional
[15] = molecular target: Phosphatidylinositol 5-phosphate 4-kinase type-2 beta (Homo sapiens) (UniProt P78356); assay: Inhibition of PIP5K2B (unknown origin) assessed as remaining activity at 1 uM by Kinome scan method relative to control
[16] = molecular target: Phosphatidylinositol 5-phosphate 4-kinase type-2 gamma (Homo sapiens) (UniProt Q8TBX8); assay: Inhibition of PIP5K2C (unknown origin) assessed as remaining activity at 1 uM by Kinome scan method relative to control
Sequence of Phosphatidylinositol 5-phosphate 4-kinase type-2 gamma (Homo sapiens) (Q8TBX8 whole entry): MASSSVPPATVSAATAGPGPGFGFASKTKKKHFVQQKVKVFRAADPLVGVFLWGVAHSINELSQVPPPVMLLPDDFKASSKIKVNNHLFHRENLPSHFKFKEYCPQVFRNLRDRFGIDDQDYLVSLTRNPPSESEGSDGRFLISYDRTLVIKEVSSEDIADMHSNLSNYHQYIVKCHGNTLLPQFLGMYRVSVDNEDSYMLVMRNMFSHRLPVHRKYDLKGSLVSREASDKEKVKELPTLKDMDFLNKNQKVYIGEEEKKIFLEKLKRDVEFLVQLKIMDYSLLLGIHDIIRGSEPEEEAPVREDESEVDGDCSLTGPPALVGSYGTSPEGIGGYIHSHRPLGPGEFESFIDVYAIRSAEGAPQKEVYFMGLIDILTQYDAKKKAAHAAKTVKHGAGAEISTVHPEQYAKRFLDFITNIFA

RV-1 [17] = assay: Antiproliferative activity against human RV-1 cells assessed as reduction in cell viability at 500 to 2500 nM incubated for 5 days in presence of lapatinib by CellTiter-Glo assay; type: functional, cell-based; conditions: dose 500-2500 nM, time 5.0 day
[18] = molecular target: Vascular endothelial growth factor receptor 2 (Homo sapiens) (UniProt P35968); assay: Inhibition of VEGFR2 (unknown origin) assessed as remaining activity at 1 uM by Kinome scan method relative to control
[19] = molecular target: Cyclin-G-associated kinase (Homo sapiens) (UniProt O14976); assay: Inhibition of GAK (unknown origin) assessed as remaining activity at 1 uM by Kinome scan method relative to control
[20] = molecular target: Myotonin-protein kinase (Homo sapiens) (UniProt Q09013); assay: Inhibition of DMPK (unknown origin) assessed as remaining activity at 1 uM by Kinome scan method relative to control
[21] = molecular target: Cyclin-dependent kinase 18 (Homo sapiens) (UniProt Q07002); assay: Inhibition of PCTK3 (unknown origin) assessed as remaining activity at 1 uM by Kinome scan method relative to control
[22] = molecular target: Serine/threonine-protein kinase STK11 (Homo sapiens) (UniProt Q15831); assay: Inhibition of LKB1 (unknown origin) assessed as remaining activity at 1 uM by Kinome scan method relative to control
[23] = molecular target: Mitogen-activated protein kinase 1 (Homo sapiens) (UniProt P28482); assay: Inhibition of ERK2 (unknown origin) assessed as remaining activity at 1 uM by Kinome scan method relative to control
[24] = Induction of cell cycle arrest in human RV-1 cells assessed as accumulation of cells at S phase at 2.5 uM incubated for 5 days in presence of MK2206 by propidium iodide staining based flow cytometric analysis (reference value: 28.9 %); type: functional; conditions: time 5 day
[25] = molecular target: Tyrosine-protein kinase JAK2 (Homo sapiens) (UniProt O60674); assay: Inhibition of JAK2 JH1 domain (unknown origin) assessed as remaining activity at 1 uM by Kinome scan method relative to control
Sequence of Tyrosine-protein kinase JAK2 (Homo sapiens) (O60674 whole entry, the tested form may be a part, canonical isoform): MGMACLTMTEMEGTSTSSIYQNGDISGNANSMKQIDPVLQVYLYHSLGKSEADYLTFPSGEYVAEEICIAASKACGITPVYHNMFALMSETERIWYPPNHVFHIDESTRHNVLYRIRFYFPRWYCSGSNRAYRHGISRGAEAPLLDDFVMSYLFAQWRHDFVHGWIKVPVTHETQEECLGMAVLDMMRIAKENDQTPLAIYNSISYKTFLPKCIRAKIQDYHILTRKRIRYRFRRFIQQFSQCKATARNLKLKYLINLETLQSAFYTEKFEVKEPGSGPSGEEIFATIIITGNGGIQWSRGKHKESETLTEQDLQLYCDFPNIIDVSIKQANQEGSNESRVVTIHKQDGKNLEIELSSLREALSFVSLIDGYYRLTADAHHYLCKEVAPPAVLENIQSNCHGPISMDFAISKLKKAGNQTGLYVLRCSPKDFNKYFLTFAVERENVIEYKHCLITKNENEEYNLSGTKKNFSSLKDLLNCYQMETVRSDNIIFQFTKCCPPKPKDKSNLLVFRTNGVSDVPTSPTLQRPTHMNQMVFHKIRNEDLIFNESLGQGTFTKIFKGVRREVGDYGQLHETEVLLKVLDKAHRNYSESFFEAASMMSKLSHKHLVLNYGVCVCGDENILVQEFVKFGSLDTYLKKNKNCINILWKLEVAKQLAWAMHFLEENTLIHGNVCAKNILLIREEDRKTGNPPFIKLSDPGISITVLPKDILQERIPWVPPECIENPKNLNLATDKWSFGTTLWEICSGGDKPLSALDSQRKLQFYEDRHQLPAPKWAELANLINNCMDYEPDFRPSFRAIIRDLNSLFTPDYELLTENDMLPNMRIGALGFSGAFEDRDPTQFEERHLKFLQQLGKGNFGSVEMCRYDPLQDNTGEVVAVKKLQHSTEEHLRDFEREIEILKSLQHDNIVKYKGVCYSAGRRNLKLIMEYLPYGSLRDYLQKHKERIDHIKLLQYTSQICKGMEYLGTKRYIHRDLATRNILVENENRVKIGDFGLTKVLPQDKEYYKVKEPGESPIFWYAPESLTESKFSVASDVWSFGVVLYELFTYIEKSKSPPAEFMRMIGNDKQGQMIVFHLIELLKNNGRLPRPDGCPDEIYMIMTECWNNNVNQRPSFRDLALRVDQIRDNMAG

[26] = tested on: Phosphatidylinositol 4,5-bisphosphate 3-kinase catalytic subunit alpha isoform (Homo sapiens), P42336 [I800L]; assay: Inhibition of PIK3CA I800L mutant (unknown origin) assessed as remaining activity at 1 uM by Kinome scan method relative to control
Sequence of Phosphatidylinositol 4,5-bisphosphate 3-kinase catalytic subunit alpha isoform (Homo sapiens), P42336 [I800L] (P42336 whole entry I800L, canonical isoform): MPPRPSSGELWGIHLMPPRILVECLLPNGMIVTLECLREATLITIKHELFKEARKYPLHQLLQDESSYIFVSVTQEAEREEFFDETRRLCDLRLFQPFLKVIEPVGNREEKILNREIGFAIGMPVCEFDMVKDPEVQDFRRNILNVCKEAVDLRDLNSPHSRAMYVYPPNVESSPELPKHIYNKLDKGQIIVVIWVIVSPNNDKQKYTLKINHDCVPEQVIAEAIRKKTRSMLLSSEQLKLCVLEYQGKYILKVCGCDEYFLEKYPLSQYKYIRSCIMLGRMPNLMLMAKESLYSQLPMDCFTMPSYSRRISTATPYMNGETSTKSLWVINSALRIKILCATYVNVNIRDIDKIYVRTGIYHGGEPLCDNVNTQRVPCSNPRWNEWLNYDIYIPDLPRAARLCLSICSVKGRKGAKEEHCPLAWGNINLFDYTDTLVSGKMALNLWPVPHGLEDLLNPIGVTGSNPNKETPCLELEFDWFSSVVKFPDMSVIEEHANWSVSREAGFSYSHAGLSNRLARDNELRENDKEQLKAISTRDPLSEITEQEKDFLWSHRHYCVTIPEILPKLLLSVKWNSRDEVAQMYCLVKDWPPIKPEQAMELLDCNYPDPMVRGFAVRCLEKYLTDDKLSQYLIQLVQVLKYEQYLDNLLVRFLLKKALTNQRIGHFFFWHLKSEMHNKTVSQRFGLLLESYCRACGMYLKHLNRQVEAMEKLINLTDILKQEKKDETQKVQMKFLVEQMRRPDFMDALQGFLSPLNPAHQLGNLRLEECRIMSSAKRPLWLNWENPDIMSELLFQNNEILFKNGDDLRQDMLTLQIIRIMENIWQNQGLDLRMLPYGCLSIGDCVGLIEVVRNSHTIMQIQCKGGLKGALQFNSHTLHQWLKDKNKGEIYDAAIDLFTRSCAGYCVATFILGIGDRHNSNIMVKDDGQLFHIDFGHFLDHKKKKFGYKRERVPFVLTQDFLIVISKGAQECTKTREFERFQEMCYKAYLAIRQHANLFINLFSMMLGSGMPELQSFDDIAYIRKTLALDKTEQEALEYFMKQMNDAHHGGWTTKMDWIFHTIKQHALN

[27] = molecular target: Megakaryocyte-associated tyrosine-protein kinase (Homo sapiens) (UniProt P42679); assay: Inhibition of CTK (unknown origin) assessed as remaining activity at 1 uM by Kinome scan method relative to control
[28] = molecular target: Macrophage colony-stimulating factor 1 receptor (Homo sapiens) (UniProt P07333); assay: Inhibition of CSF1R (unknown origin) assessed as remaining activity at 1 uM by Kinome scan method relative to control
Sequence of Macrophage colony-stimulating factor 1 receptor (Homo sapiens) (P07333 whole entry, canonical isoform): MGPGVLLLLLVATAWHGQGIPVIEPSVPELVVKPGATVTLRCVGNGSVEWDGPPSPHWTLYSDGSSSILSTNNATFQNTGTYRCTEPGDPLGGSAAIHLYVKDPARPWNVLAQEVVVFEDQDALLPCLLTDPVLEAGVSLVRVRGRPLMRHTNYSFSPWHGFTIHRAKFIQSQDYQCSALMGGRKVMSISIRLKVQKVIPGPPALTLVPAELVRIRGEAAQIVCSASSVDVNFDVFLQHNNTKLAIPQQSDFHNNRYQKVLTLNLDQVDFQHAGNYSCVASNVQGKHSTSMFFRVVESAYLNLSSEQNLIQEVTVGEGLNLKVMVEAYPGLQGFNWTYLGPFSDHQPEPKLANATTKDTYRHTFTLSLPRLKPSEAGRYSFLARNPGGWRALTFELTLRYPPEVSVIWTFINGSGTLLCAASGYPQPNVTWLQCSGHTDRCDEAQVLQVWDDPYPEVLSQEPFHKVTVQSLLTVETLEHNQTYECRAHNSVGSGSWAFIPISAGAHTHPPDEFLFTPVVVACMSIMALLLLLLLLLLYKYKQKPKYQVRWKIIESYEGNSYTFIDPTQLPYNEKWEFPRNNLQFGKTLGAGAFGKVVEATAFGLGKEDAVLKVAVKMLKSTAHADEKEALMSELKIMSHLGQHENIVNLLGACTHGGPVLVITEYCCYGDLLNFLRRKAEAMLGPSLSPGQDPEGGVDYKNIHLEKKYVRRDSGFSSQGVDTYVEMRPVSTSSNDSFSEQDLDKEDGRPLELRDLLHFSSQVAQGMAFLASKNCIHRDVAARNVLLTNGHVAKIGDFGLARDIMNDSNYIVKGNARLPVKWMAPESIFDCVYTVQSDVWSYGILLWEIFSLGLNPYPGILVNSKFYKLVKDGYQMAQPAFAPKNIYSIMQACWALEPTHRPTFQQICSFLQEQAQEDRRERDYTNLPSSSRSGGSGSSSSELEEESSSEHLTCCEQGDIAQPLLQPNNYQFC

[29] = molecular target: Phosphatidylinositol 4,5-bisphosphate 3-kinase catalytic subunit alpha isoform (Homo sapiens) (UniProt P42336); assay: Inhibition of PIK3CA (unknown origin) assessed as remaining activity at 1 uM by Kinome scan method relative to control
Sequence of Phosphatidylinositol 4,5-bisphosphate 3-kinase catalytic subunit alpha isoform (Homo sapiens) (P42336 whole entry, canonical isoform): as the sequence (P42336 whole entry I800L, canonical isoform) above, with L800I counted along it

[30] = molecular target: Membrane-associated tyrosine- and threonine-specific cdc2-inhibitory kinase (Homo sapiens) (UniProt Q99640); assay: Inhibition of PKMYT1 (unknown origin) assessed as remaining activity at 1 uM by Kinome scan method relative to control
[31] = molecular target: STE20-like serine/threonine-protein kinase (Homo sapiens) (UniProt Q9H2G2); assay: Inhibition of SLK (unknown origin) assessed as remaining activity at 1 uM by Kinome scan method relative to control

C=CC(=O)Nc1cc(-n2c(=O)ccc3cnc4ccc(-c5ccc(NS(C)(=O)=O)cc5)cc4c32)ccc1C
Activity [1]: 79% | Activity [2]: 41% | Activity [3]: 67% | Activity (RV-1 [4]): Active | Activity [5]: 92% | Activity [6]: 72% | Activity [7]: 84% | Activity [8]: 98% | Activity [9]: 72% | Activity [10]: 74% | Activity [11]: 97% | Activity [12]: 92% | Activity [13]: 83% | Activity [14]: 0.83 | Activity [15]: 93% | Activity [16]: 5.6% | Activity (RV-1 [17]): Active | Activity [18]: 97% | Activity [19]: 74% | Activity [20]: 91% | Activity [21]: 83% | Activity [22]: 79% | Activity [23]: 94% | Activity [24]: 24.3% | Activity [25]: 86% | Activity [26]: 46% | Activity [27]: 92% | Activity [28]: 94% | Activity [29]: 68% | Activity [30]: 77% | Activity [31]: 59%
